The format of series [1] is physicochemical. Here is the method: A rifaximin amount corresponding to 200 mg was dissolved in 10 ml of a solution formed by ethanol/water 1:4 (v/v), left for two days under stirring at room temperature.
Rifaximin solubility was determined by wavelength spectrophotometry at wavelength 276 nm with a rifaximin calibration curve.

The conditions of series [2]: WO 2005/044823; cited from earlier work.

The values below come from US9452157B2, “Pharmaceutical compositions comprising rifaximin and amino acids, preparation methods and use thereof” (ALFA WASSERMANN SPA, priority 2012, dated 2016).

Take `CO[C@H]1/C=C/O[C@@]2(C)Oc3c(C)c(O)c4c(O)c(c5c(nc6cc(C)ccn65)c4c3C2=O)NC(=O)/C(C)=C\C=C\[C@H](C)[C@H](O)[C@@H](C)[C@@H](O)[C@@H](C)[C@H](OC(C)=O)[C@@H]1C` [Rifaximin]: in series [1], the Rifaximin solubility worked out at 48 µg/mL and the solubility of rifaximin was found to be 48 µg/mL.

Regarding `CO[C@H]1/C=C/O[C@@]2(C)Oc3c(C)c(O)c4c(O)c(c5c(nc6cc(C)ccn65)c4c3C2=O)NC(=O)/C(C)=C\C=C\[C@H](C)[C@H](O)[C@@H](C)[C@@H](O)[C@@H](C)[C@H](OC(C)=O)[C@@H]1C` [rifaximin polymorph α], in series [2], the water solubility entry was “substantially insoluble”.
